Entries after “also recorded” stand apart in the source; their conditions may differ.
How the values were obtained:
[1] = test system: Munc13-1 deficient hippocampal neurons; experiment: EPSC augmentation following high frequency action potential trains in Munc13-1 deficient, Munc13-2 dependent neurons; type: cell-based, mouse
Calmodulin [2] = target: T1, Calmodulin (Rattus norvegicus, UniProt P0DP29); experiment: Cosedimentation of Calmodulin from rat brain synaptosome extract with GST fusion proteins; type: binding; settings: for Calmodulin binding in cosedimentation: 15 μg fusion protein, 3 mM Ca
T1 construct: from tissue; host or cells: rat brain synaptosomes, extracted with 1% Igepal
Method: GST fusion proteins containing the Calmodulin binding sites of rat Munc13-1 and ubMunc13-2 as well as GST alone were expressed in bacteria, purified and adsorbed onto glutathione beads in equal amounts for subsequent use in cosedimentation assays with rat brain synaptosome extract. Proteins that bound to the immobilized GST fusion proteins were analyzed by SDS-PAGE and immunoblotting with a specific Calmodulin antibody. Calmodulin binds specifically to wt GST-Munc13-1 (445-567) and GST-ubMunc13-2 (372-494). Calmodulin binding is completely abolished by the point mutations in the conserved tryptophanes (Position 1 in the alignment figure x).
Such a tool is a point mutation in a Munc13 protein that abolishes Calmodulin binding. On basis of the evolutionarily conservation of the tryptophane residues (FIG. 22), and since these hydrophobic residues make contact to Calmodulin, we created expression constructs that contain W464R mutation in case of Munc13-1 and a W387R mutation in case of ubMunc13-2. The effect of these mutations on Calmodulin binding was determined in cosedimentation experiments (FIG. 24). GST-tagged fragments of Munc13-1 (aa 445-567) or ubMunc13-2 (aa 372494) were expressed in bacteria and purified according to standard protocols. 15 μg of each expressed fusion protein were used to test for Calmodulin binding from 2 ml of a rat brain synaptosome extract. Rat brain synaptosomes were extracted with Igepal (1%) at a protein concentration of 2 mg/ml in a buffer containing Tris 50 mM pH 8, NaCl 150 mM, EGTA 1 mM and a cocktail of protease inhibitors. The cosedimentation experiment was performed as described prebviously (Betz, Neuron 30 […] 183-196).

hippocampal neurons [3] = experiment: β-phorbol ester induced potentiation of evoked synaptic currents in autaptic neuron cultures (patch clamp); type: cell-based, mouse; settings: for effect of PKC inhibitor on β-PE induced increase/potentiation of evoked EPSCs: 3 μM inhibitor, 1 μM PDBU
Method: (§1) Microisland culture preparation was performed according to Bekkers and Stevens (1991). The extracellular medium contained (mM): NaCl, 167; KCl, 2.4; HEPES, 10; glucose, 10; CaCl2, 4; MgCl2, 4 (340 mOsm, pH 7.3). Solutions were applied and recordings were performed as described in Rosenmund (1995). To examine synaptically activated currents, experiments were performed using recurrent synapses (autapses) or only single autaptic neuroeses on microisland cultures at room temperature (=24° C.). Pipette solutions included (mM): KCl, 120, or K-Gluconate, 125; HEPES, 10; EGTA, 1; MgCl2, 4.6; Na4ATP, 4; Creatinephosphate, 15; creatinephosphokinase 50 U/ml (320 mOsm, pH 7.3). Wild type and Munc13-1 deficient glutamatergic hippocampal neurons were used to study the characteristics of Munc13-1 and Munc13-1 independent synapses. For these purposes, individual neurons grown on microisland beds of glial cells (Bekkers, 1991) were employed. In this autaptic culture system, where isolated nerve cells make multiple synaptic contacts, so called autapses, with their own dendritic trees, spontaneous transmitter release, release of the readily releasable vesicle pool induced by hypertonic solutions, and action potential evoked release arise from the same synapse population and can be measured readily with patch clamp techniques. Autaptic responses were obtained after brief (1-2 ms) somatic depolarization. This induces an unclamped action potential that is followed by a postsynaptic response with a delay of 2-4 ms. Excitatory, glutamatergic and inhibitory, GABAergic synaptic currents were distinguished by their characteristic pharmacological and kinetic properties. Excitatory glutamatergic cells were mainly characterized because the differential equipment of presynaptic terminals formed by the same axon with Munc13 priming factors is not apparent in GABAergic neurons.
Design of and infection with Semliki Forest Virus was done according to published procedures (Betz, 2001; Ashery, 2000). Cells were measured 22-26 h after infection.
Routinely, cells from Munc13-1^H567K/Munc13-1^H567K mutants were analyzed 12-20 day after plating and compared to wild type control cells obtained from littermates. In some experiments we employed Munc13-1/Munc13-2 double deficient neurons as model cells to study the characteristics of the Munc13-1^H567K variant in comparison to wild type Munc13-1 following overexpression using the Semliki-Forest-Virus system. In contrast to Munc13-1 deficient glutamatergic hippocampal neurons, which still show measurable glutamate release (10% of wild type levels; Augustin, 1999b), double homozygous Munc13-1/Munc13-2 deletion mutant neurons are characterized by a complete lack of spontaneous and evoked transmitter release but can be rescued by reintroduction of Munc13 proteins. This rescue approach was persued in Munc13-1/Munc13-2 double mutant neurons instead of breeding the Munc13-1^H567K/Munc 3-1^H567K mutation into the Munc13-2 deletion mutant background because it was much faster and allowed the direct comparison of additional mutant (Betz, 2001) and wild type Munc13-1 variants in the same cultures. Autaptic responses were obtained after brief (1-2 ms) somatic depolarization. This induces an unclamped action potential that is followed by a postsynaptic response with a delay of 2-4 ms. Excitatory, glutamatergic synaptic currents were identified by their characteristic pharmacological and kinetic properties.

hippocampal neurons [4] = experiment: α-latrotoxin induced mEPSC/mIPSC activity; type: cell-based, mouse
Method: as §1
Given that neither action potentials nor hypertonic stimuli successfully evoked synaptic transmission and no mPSCs were detectable in Munc13-1/2 double deficient cells, it is possible that postsynaptic development is impaired in mutant cells. To test this directly, the spider toxin α-latrotoxin was used which allows to partially circumvent the need for priming factors in vesicular release (Augustin, 1999b). […] The average amplitude of these events was 22.7±2.4 pA (FIG. 5B). Both, mEPSC frequency and amplitude values are similar to wild type values (not shown).

Calmodulin [5] = target: Calmodulin (Homo sapiens, UniProt P0DP23); experiment: Tryptophane fluorescence emission of peptides as reporter for Calmodulin binding; settings: 10 μM peptide; for binding of Ca^2+/Calmodulin: excess calcium
Method: FIG. 23: Tryptophane fluorescence emission spectra of peptides reflecting the Calmodulin binding site of rat Munc13-1 and ubMunc13-2. 10 μM of each peptide were measured in NH4Acetate 0.25 M, 1 mM EGTA. Excitation was at 290 nm.
The Excitation shutter was adjusted to 1 nm bandwith, the emission shutter to 8 nm bandwidth. Pathlenght was 3 mm. All measurements were carried out at room temperature. The exact sequences of each peptide are given in the text. […] In case of the Munc13-1 peptide, Calcium independent binding is also observed, while the binding of Munc13-2 peptides strictly requires Ca2+ for binding.
The tryptophane fluorescence of the peptides was used as a reporter for Calmodulin binding in an experimental setup that was essentially identical to the experiments described elsewhere. (O'Neil et al.). Excitation of 10 μM solutions of the peptides in 0.25 M NH4Acetate pH 8 and 1 mM EGTA at 290 nm (bandwidth 1 nm) produced a maximum in the emission (bandwidth 8 nm) of both peptides at 355 nm. […] The same experiment was performed with the peptide derived of ubMunc13-2. […] In view of the evolutionarily conservation of the motif, other members of the protein family are likely to be Calmodulin targets, too.

[6] = cocktail of phosphatase inhibitors: cypermethrin 1 nM, calyculin A 10 μM, cyclosporine A 1 μM
[7] = 1 nM, Munc13-1/2 double deficient neurons

CN[C@@H]1C[C@H]2O[C@@](C)([C@@H]1OC)n1c3ccccc3c3c4c(c5c6ccccc6n2c5c31)C(=O)NC4 [staurosporine]
effect on augmentation ([1]; 100 nM): failed to suppress augmentation

GSTubMunc13-2 (aa 372-494): GST-tagged fragment of rat ubMunc13-2 (aa 372-494) containing the Calmodulin binding site, expressed in bacteria
Calmodulin binding in cosedimentation (Calmodulin [2]): robustly bound

COc1ccc2c(c1)c(C1=C(c3c[nH]c4ccccc34)C(=O)NC1=O)cn2CCCN(C)C [GÖ 6983]
β-PE induced increase in evoked EPSCs (hippocampal neurons [3]; 1 μM PDBU after preincubation for 2 min and in the presence of 3 μM GÖ 6983, wild type neurons): 150±6 % of baseline values
effect of PKC inhibitor on β-PE induced increase/potentiation of evoked EPSCs (hippocampal neurons [3]; wild type neurons): had no effect

NS(=O)(=O)c1cccc2c1c([N+](=O)[O-])cc1nc(O)c(O)nc12 [NBQX]
effect on α-latrotoxin induced mEPSC signals (hippocampal neurons [4]; Munc13-2 deficient and Munc13-1/2 double deficient neurons): blocked

GSTMunc13-1 (aa 445-567): GST-tagged fragment of rat Munc13-1 (aa 445-567) containing the Calmodulin binding site, expressed in bacteria
calcium dependence of Calmodulin binding in cosedimentation (Calmodulin [2]): partially independent of Ca^2+
Calmodulin binding in cosedimentation (Calmodulin [2]): robustly bound

cqarahwfravtkvrlqlqeis (CQARAHWFRAVTKVRLQLQEIS) [peptide derived of ubMunc13-2]
calcium dependence of Calmodulin binding (Calmodulin [5]): absolutely dependent on the presence of calcium
binding of Ca^2+/Calmodulin (Calmodulin [5]): bound

crakanwlrafnkvrmqlqear (CRAKANWLRAFNKVRMQLQEAR) [Munc13-1 derived peptide]
calcium dependence of Calmodulin binding (Calmodulin [5]): partially Ca2+ independent binding
emission spectrum change on addition of Apocalmodulin (Calcium-free Calmodulin) (Calmodulin [5]; equimolar Apocalmodulin, 1 mM EGTA): pronounced blue shift and slight intensity increase
binding of Ca^2+/Calmodulin (Calmodulin [5]): tighter binding

CC(=O)OCOC(=O)CN(CCOCCOCCN(CC(=O)OCOC(C)=O)CC(=O)OCOC(C)=O)CC(=O)OCOC(C)=O [EGTA-AM]
EPSC augmentation ([1]; 10 Hz train, pretreatment 50 μM, 20 min): 2.0±0.4 fold
maximal EPSC augmentation ([1]; 40 Hz train, pretreatment 50 μM, 20 min): 11.0±1.5 fold
augmentation in frequency-augmentation profile ([1]; frequencies below 40 Hz, pretreatment 50 μM, 20 min): strongly reduced

C=C1[C@@H](O)[C@@H]2O[C@]3(CC[C@H](/C=C/[C@@H](C)[C@@H]4CC(C)=C[C@@]5(O[C@H](C[C@@](C)(O)C(=O)O)CC[C@H]5O)O4)O3)CC[C@H]2O[C@@H]1[C@@H](O)C[C@H](C)[C@H]1O[C@@]2(CCCCO2)CC[C@H]1C [okadaic acid]
effect on augmentation ([1]; 1 μM, alone): unable to block augmentation; also recorded: did not alter augmentation

C/C1=C/C(=O)O[C@@H]2C[C@@H](CC[C@H](C)/C=C\CC1)O[C@@](O)([C@@H]1CSC(=O)N1)C2 [latrunculin B]
effect on augmentation ([1]; 10 μM): ineffective in blocking augmentation; also recorded: failed to affect augmentation

CC1(C)C(C=C(Cl)Cl)C1C(=O)OC(C#N)c1cccc(Oc2ccccc2)c1 (stereo not drawn) [cypermethrin]
effect on augmentation [1, 6]: ineffective in blocking augmentation; also recorded: did not alter augmentation

α-latrotoxin
mEPSC amplitude (hippocampal neurons [4]; [7]): 25.6±2.6 pA
mEPSC-like event frequency (hippocampal neurons [4]; [7]): 0.074±0.024 Hz
average mEPSC amplitude (hippocampal neurons [4]; 1 nM, Munc13-2 single mutant control neurons): 22.7±2.4 pA
mEPSC frequency (hippocampal neurons [4]; five minutes following 60 s application of 1 nM, Munc13-2 single mutant control neurons): 23.4±3.9 Hz

COC[C@@H]([C@H](O)[C@H](O)C(=O)NCC[C@H](C)c1nc(/C=C/C[C@@H]2O[C@]3(C[C@@H](O)[C@@H]2C)O[C@H]([C@H](C[C@H](O)[C@H](C)[C@H](O)[C@H](C)/C=C(C)/C(C)=C/C=C/C(C)=C\C#N)OC)[C@H](OP(=O)(O)O)C3(C)C)co1)N(C)C [calyculin A]
effect on augmentation [1, 6]: did not alter augmentation
effect on augmentation ([1]; cocktail of phosphatase inhibitors: cypermethrin 1 nM, calyculin A 10 μM, cyclosporine A 1 μM, listed as calyculinA): ineffective in blocking augmentation

CN(C)CCCn1cc(C2=C(c3c[nH]c4ccccc34)C(=O)NC2=O)c2ccccc21 [bisindolylmaleimide I]
potentiation of evoked EPSCs by 1 μM PDBU after bisindolylmaleimide I pretreatment (hippocampal neurons [3]): 73±8.3%
effect of PKC inhibitor on β-PE induced increase/potentiation of evoked EPSCs (hippocampal neurons [3]; wild type neurons): does not prevent
reduction of evoked EPSC responses (rundown) (hippocampal neurons [3]; 3 μM, four minute application period, wild type neurons): 41±11%

Source: patent US20060008800A1, “Unc-13 in the modulation of neurotransmission and secretion events” (priority 2002, published 2006)
